From ChEMBL document CHEMBL1148415, “Effects of C2-alkylation, N-alkylation, and N,N'-dialkylation on the stability and estrogen receptor interaction of (4R,5S)/(4S,5R)-4,5-bis(4-hydroxyphenyl)-2-imidazolines” (J Med Chem, 2004)

How the values were obtained:
[1] = molecular target: T1, Estrogen receptor (Homo sapiens, UniProt P03372); assay: Concentration required to activate luciferase expression in MCF-7-2a cells; assay type: functional, cell-based
T1 sequence (P03372 whole entry): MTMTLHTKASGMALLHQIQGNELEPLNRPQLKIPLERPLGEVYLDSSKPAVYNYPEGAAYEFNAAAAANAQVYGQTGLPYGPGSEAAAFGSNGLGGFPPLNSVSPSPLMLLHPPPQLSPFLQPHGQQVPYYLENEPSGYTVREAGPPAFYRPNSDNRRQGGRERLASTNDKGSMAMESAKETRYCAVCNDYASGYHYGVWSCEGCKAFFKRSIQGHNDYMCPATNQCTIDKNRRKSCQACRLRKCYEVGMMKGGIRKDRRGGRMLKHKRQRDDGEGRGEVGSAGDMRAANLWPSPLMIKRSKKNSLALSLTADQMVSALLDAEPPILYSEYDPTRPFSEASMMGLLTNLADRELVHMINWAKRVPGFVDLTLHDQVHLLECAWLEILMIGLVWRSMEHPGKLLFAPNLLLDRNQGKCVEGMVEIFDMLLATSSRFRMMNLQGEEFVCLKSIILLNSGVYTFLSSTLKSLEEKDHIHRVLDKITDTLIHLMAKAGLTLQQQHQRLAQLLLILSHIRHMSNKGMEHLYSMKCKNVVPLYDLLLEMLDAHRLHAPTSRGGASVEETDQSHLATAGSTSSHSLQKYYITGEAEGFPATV

[2] = Half life at 7.4 pH; assay type: ADME; details: pH 7.4
[3] = Rate constant at 7.4 pH; assay type: ADME; details: pH 7.4
[4] = Half life at 7.4 pH; No decomposition was observed within 55h; assay type: ADME; details: pH 7.4, 55 h
[5] = Rate constant at 7.4 pH; No decomposition was observed within 55h; assay type: ADME; details: pH 7.4, 55 h

EC50 [1] | half-life [2] | k obs [3] | T1/2 [4] | k obs [5] | Structure (SMILES)
300 nM |  |  |  |  | CN1C=N[C@@H](c2ccc(O)cc2Cl)[C@H]1c1ccc(O)cc1Cl
150 nM |  |  |  |  | CCCN1C=N[C@@H](c2ccc(O)cc2Cl)[C@H]1c1ccc(O)cc1Cl
780 nM |  |  |  |  | CN1C=[N+](C)[C@@H](c2ccc(O)cc2Cl)[C@H]1c1ccc(O)cc1Cl
 | 382 min | 0.122 h⁻¹ |  |  | Oc1ccc([C@H]2N=CN[C@H]2c2ccc(O)cc2)cc1
15 nM | 9240 min | 0.004 h⁻¹ |  |  | CCN1C=N[C@@H](c2ccc(O)cc2Cl)[C@H]1c1ccc(O)cc1Cl
 | 356 min | 0.15 h⁻¹ |  |  | Oc1ccc([C@H]2NC=N[C@H]2c2ccc(O)cc2Cl)c(Cl)c1
500 nM |  |  | Stable | Stable | CCN1C=[N+](CC)[C@@H](c2ccc(O)cc2Cl)[C@H]1c1ccc(O)cc1Cl
65 nM | 805 min | 0.052 h⁻¹ |  |  | Oc1ccc([C@H]2N=CN[C@H]2c2c(Cl)cc(O)cc2Cl)c(Cl)c1
 | 275 min | 0.198 h⁻¹ |  |  | COc1ccc([C@H]2N=CN[C@H]2c2ccc(OC)cc2Cl)c(Cl)c1
 |  |  | Stable | Stable | OCCC1=N[C@H](c2ccc(O)cc2Cl)[C@H](c2ccc(O)cc2Cl)N1
5000 nM |  |  |  |  | CC1=N[C@@H](c2c(Cl)cc(O)cc2Cl)[C@@H](c2ccc(O)cc2Cl)N1

Structure (SMILES) | EC50 [1] | half-life [2] | k obs [3] | T1/2 [4] | k obs [5]
N[C@H](c1ccc(O)cc1Cl)[C@@H](NC=O)c1ccc(O)cc1Cl | 3000 nM |  |  |  | 
N[C@H](c1ccc(O)cc1Cl)[C@@H](N)c1ccc(O)cc1Cl | 1500 nM |  |  |  | 
